Series [1] deals with MV-4-11 (human, Acute Myeloid Leukemia cell line) cells. Briefly: Cell growth inhibition assay, GI50 of MV-4-11. Type of series: cell-based. As to conditions: Homo sapiens, MV4-11, 72 h, MV-4-11 cells. The essentials:
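GI50 derived from 490 nm absorbance using CellTiter 96 Aqueous One reagent, with compound-free medium providing the background. Human AML MV-4-11 cells, seeded at 5×10^4 per well in IMDM/10% FBS, incubated 72 h at 37 °C with duplicate serial dilutions of test compound.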

For series [2], the target named is cDNA-expressed human hepatic CYP3A4 (Homo sapiens (Human), UniProt P08684). Briefly: Measurement of CYP (IC50 of P450 CYP3A4), BFC substrate. Type of series: in vitro ADME. As to conditions: 20 minutes. The essentials: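 cDNA-expressed human CYP3A4 supersomes in 0.1M potassium phosphate pH 7.4 with 8.3 mM MgCl2, 1.67 mM EDTA and 0.25 mM NADPH; compounds in acetonitrile (<1% final). Reaction started with 30 µM BFC, 20 min at 37. 7-Hydroxy-4-trifluoromethyl-coumarin read by fluorescence (ex 409/em 530 nm).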

Here are results for 28 compounds from patent US8940739B2, “Compound of a reverse-turn mimetic and a production method and use therefor” (JW Pharmaceutical Corporation, priority 2010, dated 2015).

Each structure is given as a SMILES string. Where only a bound is given, the exact number is not on record here.

Chain of cDNA-expressed human hepatic CYP3A4 (P08684 whole entry): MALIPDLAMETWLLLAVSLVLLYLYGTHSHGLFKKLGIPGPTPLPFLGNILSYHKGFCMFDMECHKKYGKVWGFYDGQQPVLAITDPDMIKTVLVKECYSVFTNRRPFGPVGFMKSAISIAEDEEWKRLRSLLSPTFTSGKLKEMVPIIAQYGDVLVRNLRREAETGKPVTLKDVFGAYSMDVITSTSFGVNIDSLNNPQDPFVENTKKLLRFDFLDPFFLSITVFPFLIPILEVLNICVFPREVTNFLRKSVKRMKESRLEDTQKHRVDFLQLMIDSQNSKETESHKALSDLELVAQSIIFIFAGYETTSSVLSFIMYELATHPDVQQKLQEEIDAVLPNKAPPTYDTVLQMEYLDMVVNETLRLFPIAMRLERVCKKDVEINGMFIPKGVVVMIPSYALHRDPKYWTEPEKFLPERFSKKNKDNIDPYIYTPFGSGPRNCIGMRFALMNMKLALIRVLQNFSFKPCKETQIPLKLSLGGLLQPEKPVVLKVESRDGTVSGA

For the compound `C=CCN1CC(=O)N2C(Cc3ccc(O)cc3)C(=O)N(Cc3cccc4c(C(=O)Nc5ccc(N6CCC(O)CC6)nc5)cn(C)c34)CC2N1C(=O)NCc1ccccc1` (centres unmarked) [Compound G-37], growth in series [1] was halved (GI50) at 1.3 nM. The IC50 (in general, the midpoint of a concentration-inhibition curve) in series [2] stood at 6950 nM.
`C=CCN1CC(=O)N2[C@@H](Cc3ccc(O)cc3)C(=O)N(Cc3cccc4c(-c5ccc(NC(=O)NC6CCN(C)CC6)nc5)cn(C)c34)C[C@@H]2N1C(=O)NCc1ccccc1` [Compound D-98]: halving of growth in series [1] (GI50) required 23 nM. This compound also yielded an IC50 in series [2] of 2920 nM.
In the same order, the values of `C=CCN1CC(=O)N2[C@@H](Cc3ccc(O)cc3)C(=O)N(Cc3cccc4c(C(=O)N5CCN(C(C)C)CC5)cn(C)c34)C[C@@H]2N1C(=O)NCc1ccccc1` [Compound E-7] are 11.3 nM and 2240 nM.
In the case of `C=CCN1CC(=O)N2C(CN(Cc3cccc4c(C(=O)Nc5ccc(N6CCNCC6)nc5)cn(C)c34)C(=O)[C@@H]2Cc2ccc(O)cc2)N1C(=O)NCc1ccccc1` (some centres unmarked) [Compound G-39], it took 11.3 nM to inhibit growth in series [1] by half (GI50). For the same compound, the IC50 in series [2] came to 2730 nM.
Take `C=CCN1CC(=O)N2C(CN(Cc3cccc4c(C(=O)Nc5ccc(OC)nc5)cn(C)c34)C(=O)[C@@H]2Cc2ccc(O)cc2)N1C(=O)NCc1ccccc1` (some centres unmarked) [Compound G-5]: in series [1], the GI50 (usually the concentration that inhibits growth by half) turned out to be 8.8 nM. In addition, in series [2], it took 2160 nM to reach half-maximal inhibition (IC50).
Consider `C=CCN1CC(=O)N2[C@@H](Cc3ccc(O)cc3)C(=O)N(Cc3cccc4c(-c5ccc(C(=O)N6CCN(C)CC6)nc5)cn(C)c34)C[C@@H]2N1C(=O)NCc1ccccc1` [Compound D-91], for which the GI50 in series [1] was 1.3 nM. Besides, in series [2], 6510 nM corresponded to half-maximal inhibition (IC50).
The compound `C=CCN1CC(=O)N2[C@@H](Cc3ccc(O)cc3)C(=O)N(Cc3cccc4c(-c5ccc(C(=O)OC)cc5)cn(C)c34)C[C@@H]2N1C(=O)NCc1ccccc1` [Compound H-1] yielded a GI50 in series [1] of 15 nM. Besides, in series [2], the IC50 was 3850 nM.
In series [1], `C=CCN1CC(=O)N2C(Cc3ccc(O)cc3)C(=O)N(Cc3cccc4c(C(=O)Nc5ccc(NC6CC(C)(C)N(C)C(C)(C)C6)nc5)cn(C)c34)CC2N1C(=O)NCc1ccccc1` (centres unmarked) [Compound G-52] registered a GI50 of 13 nM. In series [2], the IC50 amounted to 7100 nM.
`C=CCN1CC(=O)N2C(Cc3ccc(O)cc3)C(=O)N(Cc3cccc4c(C(=O)Nc5ccc(N6CCN(C7CC7)CC6)nc5)cn(C)c34)CC2N1C(=O)NCc1ccccc1` (centres unmarked) [Compound G-49] gave a GI50 in series [1] of 1.3 nM. Half-maximal inhibition in series [2] (IC50) required 6940 nM.
`C=CCN1CC(=O)N2C(Cc3ccc(O)cc3)C(=O)N(Cc3cccc4c(C(=O)Nc5ccc(N6CCC(N7CCCC7)CC6)nc5)cn(C)c34)CC2N1C(=O)NCc1ccccc1` (centres unmarked) [Compound G-51] yielded a GI50 in series [1] of 1.3 nM. Further, the IC50 in series [2] was found to be 3970 nM.
In series [1], `C=CCN1CC(=O)N2[C@@H](Cc3ccc(O)cc3)C(=O)N(Cc3cccc4c(C(=O)Nc5ccc(N(C)CCO)nc5)cn(C)c34)C[C@@H]2N1C(=O)NCc1ccccc1` [Compound G-18] had a GI50 of 1.5 nM. For the same compound, the IC50 in series [2] came out at 3450 nM.
In the case of `C=CCN1CC(=O)N2[C@@H](Cc3ccc(O)cc3)C(=O)N(Cc3cccc4c(C(=O)N5CCN6CCN(CC(C)C)CC6C5)cn(C)c34)C[C@@H]2N1C(=O)NCc1ccccc1` (some centres unmarked) [Compound E-45], the GI50 in series [1] turned out to be 1.8 nM. This compound also displayed an IC50 in series [2] of 3980 nM.
For `C=CCN1CC(=O)N2C(Cc3ccc(O)cc3)C(=O)N(Cc3cccc4c(C(=O)Nc5ccc(NCC(C)(C)C)nc5)cn(C)c34)CC2N1C(=O)NCc1ccccc1` (centres unmarked) [Compound G-22] the same measures were 1.4 nM and 2380 nM.
`C=CCN1CC(=O)N2[C@@H](Cc3ccc(O)cc3)C(=O)N(Cc3cccc4c(-c5ccc(C(=O)N6CCSCC6)cc5)cn(C)c34)C[C@@H]2N1C(=O)NCc1ccccc1` [Compound D-5] had a GI50 in series [1] of 2.2 nM. Besides, in series [2], the IC50 stood at 1760 nM.
For `C=CCN1CC(=O)N2[C@@H](Cc3ccc(O)cc3)C(=O)N(Cc3cccc4c(-c5ccc(NC(=O)Nc6ncccn6)cc5)cn(C)c34)C[C@@H]2N1C(=O)NCc1ccccc1` [Compound D-82] the same measures were 16.8 nM and 8520 nM.
Consider `C=CCN1CC(=O)N2[C@@H](Cc3ccc(O)cc3)C(=O)N(Cc3cccc4c(C(=O)Nc5ccc(N(C)C)nc5)cn(C)c34)C[C@@H]2N1C(=O)NCc1ccccc1` [Compound G-15], for which, in series [1], halving of growth (GI50) required 1.2 nM. Also, the IC50 in series [2] came to 6750 nM.
Turning to `C=CCN1CC(=O)N2C(CN(Cc3cccc4c(C(=O)Nc5ccc(N6CCN(CC)CC6)nc5)cn(C)c34)C(=O)[C@@H]2Cc2ccc(O)cc2)N1C(=O)NCc1ccccc1` (some centres unmarked) [Compound G-42], it took 1.3 nM to inhibit growth in series [1] by half (GI50). This compound gave an IC50 in series [2] of 5730 nM.
In series [1], `C=CCN1CC(=O)N2[C@@H](Cc3ccc(O)cc3)C(=O)N(Cc3cccc4c(C(=O)N5CCOCC5)cn(C)c34)C[C@@H]2N1C(=O)NCc1ccccc1` [Compound E-3] came in with a GI50 of 18.4 nM. Moreover, the IC50 in series [2] stood at 3900 nM.
Take `C=CCN1CC(=O)N2C(CN(Cc3cccc4c(C(=O)Nc5ccc(N6CCN(C)CC6)nc5)cn(C)c34)C(=O)[C@@H]2Cc2ccc(O)cc2)N1C(=O)NCc1ccccc1` (some centres unmarked) [Compound G-41]: in series [1], the GI50 was determined as 1.3 nM. Further, the IC50 in series [2] amounted to 7600 nM.
For `C=CCN1CC(=O)N2[C@@H](Cc3ccc(O)cc3)C(=O)N(Cc3cccc4c(-c5ccc(NC(=O)NC6CCCC6)cc5)cn(C)c34)C[C@@H]2N1C(=O)NCc1ccccc1` [Compound D-79], the GI50 in series [1] turned out to be 10.8 nM. It took 7800 nM to reach half-maximal inhibition in series [2] (IC50).
Compound `C=CCN1CC(=O)N2[C@@H](Cc3ccc(O)cc3)C(=O)N(Cc3cccc4c(-c5ccc(NC(=O)c6ccc(N)cc6)cc5)cn(C)c34)C[C@@H]2N1C(=O)NCc1ccccc1` [Compound D-50] displayed a GI50 in series [1] of 2 nM. In addition, in series [2], the IC50 was above 25000 nM.
As to `C=CCN1CC(=O)N2[C@@H](Cc3ccc(O)cc3)C(=O)N(Cc3cccc4c(C(=O)Nc5ccc(N6CCC(N7CCC7)CC6)nc5)cn(C)c34)C[C@@H]2N1C(=O)NCc1ccccc1` [Compound G-54], the GI50 in series [1] was 1.4 nM. The compound further came in with an IC50 in series [2] of 3290 nM.
In series [1], `C=CCN1CC(=O)N2[C@@H](Cc3ccc(O)cc3)C(=O)N(Cc3cccc4c(C(=O)NC5CCN(C(=O)OC(C)(C)C)CC5)cn(C)c34)C[C@@H]2N1C(=O)NCc1ccccc1` [Compound F-61] came in with a GI50 of 1.6 nM. Moreover, in series [2], inhibition was half-maximal at 5650 nM (IC50).
In the same order, the values of `C=CCN1CC(=O)N2C(CN(Cc3cccc4c(C(=O)Nc5ccc6c(c5)OCCO6)cn(C)c34)C(=O)[C@@H]2Cc2ccc(O)cc2)N1C(=O)NCc1ccccc1` (some centres unmarked) [Compound G-70] are 1.7 nM and 2630 nM.
`C=CCN1CC(=O)N2[C@@H](Cc3ccc(O)cc3)C(=O)N(Cc3cccc4c(C(=O)N5CCN(CCOC)CC5)cn(C)c34)C[C@@H]2N1C(=O)NCc1ccccc1` [Compound E-10]: the GI50 in series [1] came out at 10.8 nM. In series [2], this compound yielded an IC50 of 9120 nM.
In series [1], `C=CCN1CC(=O)N2[C@@H](Cc3ccc(O)cc3)C(=O)N(Cc3cccc4c(-c5ccc(C(=O)N6CCN(S(C)(=O)=O)CC6)nc5)cn(C)c34)C[C@@H]2N1C(=O)NCc1ccccc1` [Compound D-90] registered a GI50 of 4.6 nM. Also, in series [2], the IC50 was determined as 6960 nM.
For `C=CCN1CC(=O)N2C(Cc3ccc(O)cc3)C(=O)N(Cc3cccc4c(C(=O)Nc5ccc(N6CCN(C(C)(C)C)CC6)nc5)cn(C)c34)CC2N1C(=O)NCc1ccccc1` (centres unmarked) [Compound G-48] the same measures were 1.3 nM and 4190 nM.
In turn, `C=CCN1CC(=O)N2[C@@H](Cc3ccc(O)cc3)C(=O)N(Cc3cccc4c(-c5ccc(C(=O)NNC(C)(C)C)cc5)cn(C)c34)C[C@@H]2N1C(=O)NCc1ccccc1` [Compound D-34] yielded a GI50 in series [1] of 1.2 nM. Further, half-maximal inhibition in series [2] (IC50) required 3410 nM.
